Test results as given in ChEMBL document CHEMBL1201862, “PubChem BioAssay data set” (2004).
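Where inhibition never reached the appropriate level, the endpoint shown equals the highest concentration tested. Otherwise, values were interpolated linearly from a five-concentration, 48-hour dose response in 96-well plates. GI50 marks 50% less growth.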 Active and inactive are the calls of the source. Cut-off read from the data, not from the text of the source: active = GI50 up to about 1.1 µM and inactive = higher.

Experiments:
Test in all cases: DTP human tumour cell line panel, 48 h
LOX IMVI = system: LOX IMVI
HL-60 = system: HL-60
MOLT-4 = system: MOLT-4
RPMI-8226 = system: RPMI-8226
TK-10 = system: TK-10
OVCAR-5 = system: OVCAR-5
COLO 205 = system: COLO 205
MDA-MB-231 = system: MDA-MB-231
Malme-3M = system: Malme-3M
BT-549 = system: BT-549
CCRF-CEM = system: CCRF-CEM
NCI-H460 = system: NCI-H460
ACHN = system: ACHN
SK-MEL-5 = system: SK-MEL-5
SF-295 = system: SF-295
NCI/ADR-RES = system: NCI/ADR-RES
EKVX = system: EKVX
OVCAR-8 = system: OVCAR-8
SW-620 = system: SW-620
Hs-578T = system: Hs-578T
A549 = system: A549
UO-31 = system: UO-31
HCC 2998 = system: HCC 2998
HCT-15 = system: HCT-15
DU-145 = system: DU-145
SK-OV-3 = system: SK-OV-3
OVCAR-4 = system: OVCAR-4
NCI-H522 = system: NCI-H522
NCI-H23 = system: NCI-H23
CAKI-1 = system: CAKI-1
IGROV-1 = system: IGROV-1
SK-MEL-28 = system: SK-MEL-28
M14 = system: M14
RXF 393 = system: RXF 393
HOP-62 = system: HOP-62
SNB-75 = system: SNB-75
U-251 = system: U-251
MDA-N = system: MDA-N
K562 = system: K562
PC-3 = system: PC-3
A498 = system: A498
HOP-92 = system: HOP-92
SN12C = system: SN12C
UACC-62 = system: UACC-62
HT-29 = system: HT-29
HCT-116 = system: HCT-116
MDA-MB-435 = system: MDA-MB-435
SF-539 = system: SF-539
T47D = system: T47D
SK-MEL-2 = system: SK-MEL-2
SR = system: SR
SNB-19 = system: SNB-19
NCI-H226 = system: NCI-H226
KM12 = system: KM12
UACC-257 = system: UACC-257
786-0 = system: 786-0
OVCAR-3 = system: OVCAR-3
MCF7 = system: MCF7
SF-268 = system: SF-268

**Q.** With `Cc1cn(S(=O)(=O)c2ccccc2)c2c(OCc3ccccc3)cc(NC(=O)c3cc4cc([N+](=O)[O-])ccc4s3)cc12` as the molecule, how does the GI50 (LOX IMVI) read?
**A.** Its GI50 is > 100 µM (inactive).

**Q.** And the GI50 (HL-60)?
**A.** The GI50 was 91 µM (inactive).

**Q.** What about the GI50 (MOLT-4) of the same molecule?
**A.** The GI50 was 59.6 µM (inactive).

**Q.** What about the GI50 (RPMI-8226) of the same molecule?
**A.** Its GI50 is > 100 µM (inactive).

**Q.** And the GI50 (TK-10)?
**A.** The GI50 was > 100 µM (inactive).

**Q.** What about the GI50 (OVCAR-5) of the same molecule?
**A.** Its GI50 is > 100 µM (inactive).

**Q.** And the GI50 (COLO 205)?
**A.** Its GI50 is > 100 µM (inactive).

**Q.** What about the GI50 (MDA-MB-231) of the same molecule?
**A.** Its GI50 is 49.1 µM (inactive).

**Q.** And the GI50 (Malme-3M)?
**A.** Its GI50 is 89.7 µM (inactive).

**Q.** What about the GI50 (BT-549) of the same molecule?
**A.** The GI50 was > 100 µM (inactive).

**Q.** And the GI50 (CCRF-CEM)?
**A.** Its GI50 is 38.9 µM (inactive).

**Q.** What about the GI50 (NCI-H460) of the same molecule?
**A.** The GI50 was > 100 µM (inactive).

**Q.** And the GI50 (ACHN)?
**A.** The GI50 was > 100 µM (inactive).

**Q.** And the GI50 (SK-MEL-5)?
**A.** The GI50 was > 100 µM (inactive).

**Q.** And the GI50 (SF-295)?
**A.** The GI50 was 58.7 µM (inactive).

**Q.** What about the GI50 (NCI/ADR-RES) of the same molecule?
**A.** The GI50 was > 100 µM (inactive).

**Q.** And the GI50 (EKVX)?
**A.** The GI50 was > 100 µM (inactive).

**Q.** What about the GI50 (OVCAR-8) of the same molecule?
**A.** The GI50 was > 100 µM (inactive).

**Q.** And the GI50 (SW-620)?
**A.** Its GI50 is > 100 µM (inactive).

**Q.** What about the GI50 (Hs-578T) of the same molecule?
**A.** The GI50 was > 100 µM (inactive).

**Q.** What about the GI50 (A549) of the same molecule?
**A.** The GI50 was > 100 µM (inactive).

**Q.** And the GI50 (UO-31)?
**A.** Its GI50 is > 100 µM (inactive).

**Q.** What about the GI50 (HCC 2998) of the same molecule?
**A.** Its GI50 is > 100 µM (inactive).

**Q.** What about the GI50 (HCT-15) of the same molecule?
**A.** The GI50 was > 100 µM.

**Q.** What about the GI50 (DU-145) of the same molecule?
**A.** Its GI50 is > 100 µM (inactive).

**Q.** What about the GI50 (SK-OV-3) of the same molecule?
**A.** The GI50 was > 100 µM (inactive).

**Q.** What about the GI50 (OVCAR-4) of the same molecule?
**A.** Its GI50 is > 100 µM (inactive).

**Q.** What about the GI50 (NCI-H522) of the same molecule?
**A.** The GI50 was > 100 µM (inactive).

**Q.** What about the GI50 (NCI-H23) of the same molecule?
**A.** The GI50 was > 100 µM (inactive).

**Q.** What about the GI50 (CAKI-1) of the same molecule?
**A.** The GI50 was > 100 µM (inactive).

**Q.** What about the GI50 (IGROV-1) of the same molecule?
**A.** Its GI50 is > 100 µM (inactive).

**Q.** And the GI50 (SK-MEL-28)?
**A.** The GI50 was > 100 µM (inactive).

**Q.** What about the GI50 (M14) of the same molecule?
**A.** The GI50 was 37.8 µM (inactive).

**Q.** And the GI50 (RXF 393)?
**A.** The GI50 was > 100 µM (inactive).

**Q.** And the GI50 (HOP-62)?
**A.** The GI50 was > 100 µM (inactive).

**Q.** And the GI50 (SNB-75)?
**A.** The GI50 was 68.9 µM (inactive).

**Q.** Which results are given for `Cc1c(C)n(-c2ccccc2)c2nc(S(C)(=O)=O)nc(S(C)(=O)=O)c12`?
**A.** GI50 (U-251): 5.9 µM (inactive); GI50 (LOX IMVI): 1.71 µM (inactive); GI50 (HL-60): 1.58 µM (inactive); GI50 (MDA-N): 1.64 µM (inactive); GI50 (K562): 1.4 µM (inactive); GI50 (PC-3): 5.06 µM (inactive); GI50 (A498): 14.1 µM (inactive); GI50 (HOP-92): 1.61 µM (inactive); GI50 (SN12C): 17.8 µM (inactive); GI50 (MOLT-4): 1.48 µM (inactive); GI50 (UACC-62): 3.28 µM (inactive); GI50 (RPMI-8226): 2.65 µM (inactive); GI50 (TK-10): 1.58 µM (inactive); GI50 (OVCAR-5): 1.82 µM (inactive); GI50 (COLO 205): 1.8 µM (inactive); GI50 (HT-29): 1.92 µM (inactive); GI50 (HCT-116): 1.53 µM (inactive); GI50 (MDA-MB-231): 5.73 µM (inactive); GI50 (Malme-3M): 1.4 µM (inactive); GI50 (CCRF-CEM): 0.634 µM (active); GI50 (MDA-MB-435): 1.79 µM (inactive); GI50 (NCI-H460): 16.9 µM (inactive); GI50 (SF-539): 14 µM (inactive); GI50 (ACHN): 1.57 µM (inactive); GI50 (T47D): 2.05 µM (inactive); GI50 (SK-MEL-2): 2.07 µM (inactive); GI50 (SK-MEL-5): 12.7 µM (inactive); GI50 (SF-295): 16.9 µM (inactive); GI50 (SR): 1 µM (active); GI50 (NCI/ADR-RES): 23.1 µM (inactive); GI50 (EKVX): 5.41 µM (inactive); GI50 (SNB-19): 3.3 µM (inactive); GI50 (OVCAR-8): 2.19 µM (inactive); GI50 (SW-620): 0.228 µM (active); GI50 (Hs-578T): 16.1 µM (inactive); GI50 (A549): 16 µM (inactive); GI50 (UO-31): 1.71 µM (inactive); GI50 (HCC 2998): 23.3 µM (inactive); GI50 (HCT-15): 1.61 µM; GI50 (NCI-H226): 21.4 µM (inactive); GI50 (DU-145): 14.6 µM (inactive); GI50 (KM12): 13.7 µM (inactive); GI50 (UACC-257): 1.64 µM (inactive); GI50 (786-0): 1.28 µM (inactive); GI50 (OVCAR-3): 1.6 µM (inactive); GI50 (SK-OV-3): 19.6 µM (inactive); GI50 (OVCAR-4): 1.65 µM (inactive); GI50 (NCI-H522): 1.75 µM (inactive); GI50 (NCI-H23): 7.82 µM (inactive); GI50 (MCF7): 1.25 µM (inactive); GI50 (CAKI-1): 0.171 µM (active); GI50 (IGROV-1): 4.72 µM (inactive); GI50 (SK-MEL-28): 2.53 µM (inactive); GI50 (SF-268): 14 µM (inactive); GI50 (M14): 1.62 µM (inactive); GI50 (RXF 393): 0.475 µM (active); GI50 (HOP-62): 16.8 µM (inactive); GI50 (SNB-75): 19.3 µM (inactive)

**Q.** Which results are given for `Cc1cc(C)n(C(=CC(=O)C(Cl)Cl)n2nc(C)cc2C)n1`?
**A.** GI50 (U-251): 5.12 µM (inactive); GI50 (LOX IMVI): 1.57 µM (inactive); GI50 (HL-60): 3.32 µM (inactive); GI50 (K562): 2.17 µM (inactive); GI50 (PC-3): 11.4 µM (inactive); GI50 (A498): 53.1 µM (inactive); GI50 (HOP-92): 9.31 µM (inactive); GI50 (MOLT-4): 0.151 µM (active); GI50 (UACC-62): 1.66 µM (inactive); GI50 (RPMI-8226): 0.871 µM (active); GI50 (TK-10): 3.18 µM (inactive); GI50 (OVCAR-5): 3.48 µM (inactive); GI50 (COLO 205): 13.8 µM (inactive); GI50 (HCT-116): 1.76 µM (inactive); GI50 (MDA-MB-231): 2.38 µM (inactive); GI50 (Malme-3M): 4.35 µM (inactive); GI50 (BT-549): 2.45 µM (inactive); GI50 (CCRF-CEM): 1.85 µM (inactive); GI50 (MDA-MB-435): 2.52 µM (inactive); GI50 (NCI-H460): 6.97 µM (inactive); GI50 (SF-539): 3.43 µM (inactive); GI50 (ACHN): 6.05 µM (inactive); GI50 (T47D): 4.06 µM (inactive); GI50 (SK-MEL-2): 3.69 µM (inactive); GI50 (SK-MEL-5): 5.98 µM (inactive); GI50 (SF-295): 10.4 µM (inactive); GI50 (SR): 1.61 µM (inactive); GI50 (NCI/ADR-RES): 2.65 µM (inactive); GI50 (SNB-19): 10.7 µM (inactive); GI50 (OVCAR-8): 2.25 µM (inactive); GI50 (SW-620): 3.88 µM (inactive); GI50 (Hs-578T): 5.21 µM (inactive); GI50 (A549): 21.7 µM (inactive); GI50 (UO-31): 4.71 µM (inactive); GI50 (HCT-15): 2.73 µM; GI50 (NCI-H226): 0.735 µM (active); GI50 (DU-145): 5.38 µM (inactive); GI50 (KM12): 6.49 µM (inactive); GI50 (UACC-257): 1.32 µM (inactive); GI50 (786-0): 2.07 µM (inactive); GI50 (OVCAR-3): 3.66 µM (inactive); GI50 (SK-OV-3): 23.5 µM (inactive); GI50 (OVCAR-4): > 100 µM (inactive); GI50 (NCI-H522): 1.79 µM (inactive); GI50 (NCI-H23): 2.62 µM (inactive); GI50 (MCF7): 3.94 µM (inactive); GI50 (CAKI-1): 4.94 µM (inactive); GI50 (IGROV-1): 9.64 µM (inactive); GI50 (SF-268): 6.38 µM (inactive); GI50 (M14): 2.83 µM (inactive); GI50 (RXF 393): 2.61 µM (inactive); GI50 (HOP-62): 3.66 µM (inactive); GI50 (SNB-75): > 100 µM (inactive)
